Several values for one entry are separate records, joined by “and”; a condition that tells them apart may be missing. Equal values may be shown once. Entries after “also recorded” stand apart in the source; their conditions may differ.
How the values were obtained:
[1] = Quenching of the ABTS radical cation
Method: The iron chelators were tested for their ability to quench the radical cation formed from 2,2′-azinobis(3-ethylbenzothiazoline-6-sulfonic acid) (ABTS) by the method of Re et al. in Free Radic. Biol. Med. 26, 1231-1237 (1999). Briefly, a stock solution of ABTS radical cation was generated by mixing ABTS (10 mM, 2.10 mL) with K2S2O8 (8.17 mM, 0.90 mL) in H2O and […] deep blue-green ABTS radical cation was diluted in sufficient sodium phosphate (10 mM, pH 7.4) to give an A734 of about 0.900. Test compounds were added to a final concentration ranging from 1.25 to 15 μM, and the decrease in A734 was read after 1, 2, 4 and 6 min. The reaction was largely complete by 1 min, but the data presented are based on a 6-min reaction time.
In this assay, a fairly stable radical cation, ABTS^+, was examined, and Trolox, an analog of vitamin E, was used as a positive control. Briefly, the procedure involved generating the blue-green chromophore by the reaction of ABTS with K2S2O8. The radical has absorption maxima at λ=415, 645, 734, and 815 nm. The change in absorbance at 734 nm was noted 6 min after addition of the chelator of interest at various concentrations, and the slope of the ΔA734 vs. ligand concentration line was calculated.
The iron chelators were tested for their ability to quench the radical cation formed from 2,2′-azinobis(3-ethylbenzothiazoline-6-sulfonic acid) (ABTS) by a published method (Re, R., et al., Free Radical Biol. Med. 26:1231-1237 (1999). Briefly, a stock solution of ABTS radical cation was generated by mixing ABTS (10 mM, 2.10 mL) with K2S2O8 (8.17 mM, 0.90 mL) in H2O and allowing the solution to sit in the dark at room temperature for 18 hours. This stock solution of deep blue-green ABTS radical cation was diluted in sufficient sodium phosphate (10 mM, pH 7.4) to give an A734 of about 0.900. Test compounds were added to a final concentration ranging from 1.25 to 15 μM, and the decrease in A734 was read after 1, 2, 4 and 6 min. The reaction was largely complete by 1 min, but the data presented are based on a 6-min. reaction time.
This radical cation decolorization assay utilizes the pre-formed radical monocation of 2,2′-azinobis(3-ethylbenzothiazoline-6-sulfonic acid) (ABTS) and has been used to evaluate the antioxidant capacity of a large number of compounds and mixtures. Briefly, the change in absorbance of the blue-green chromophore was recorded after the addition of the chelator of interest at each of the different concentrations, and the slope of the ΔA734 vs. ligand concentration line was calculated. The positive control for this reaction was Trolox, an analogue of vitamin E. The decrease in A734 as a function of ligand concentration is the comparitor among the five compounds evaluated. Trolox, L1, DFO, (S)-4′-(HO)-DADMDFT and BDU (Table 3). All four of the iron chelators performed better than Trolox; DFO≈BDU>(S)-4′-(HO)-DADMDFT>L1>Trolox. Thus, all of these ligands could be expected to serve as excellent radical scavengers.

[2] = Prevention of iron-mediated oxidation of ascorbate (ascorbate-mediated reduction of Fe(III)); conditions: ascorbate 100 μM, FeCl3 30 μM, pH 7.4, ligand/Fe ratios 0-3, 40 min
Method: (§1) The iron chelators were tested for their ability to diminish the iron-mediated oxidation of ascorbate by the method of Dean and Nicholson (Free Radical Res. 20, 83-101 (1994)). Briefly, a solution of freshly prepared ascorbate (100 μM) in sodium phosphate buffer (5 mM, pH 7.4) was incubated in the presence of FeCl3 (30 μM) and chelator (ligand/Fe ratios varied from 0-3) for 40 min. The A265 was read at 10 and 40 min; the ΔA265 in the presence of ligand was compared to that in its absence.
The role of chelators in either inhibition or promotion of the Fenton reaction is related to their capacity to prevent Fe(III) from being reduced to Fe(II). Fe(II) is required for the reduction of H2O2 to HO. and HO^−. The assay involves spectrophotometrically monitoring the disappearance of ascorbate at pH 7.4 in the presence of FeCl3 and chelator at several ligand/Fe ratios. Under these conditions, ascorbate is oxidized to an L-ascorbyl radical anion. This anion then disproportionates to dehydroascorbic acid and ascorbate.
as §1, with “chelators nitrilotriacetic acid (NTA), 1,2-dimethyl-3-hydroxypyridin-4-one (L1), desferrioxamine B (DFO), (S)-4′-(HO)-DADMDFT, and (S,S)-1,11-Bis[5-(4-carboxyl-4,5-dihydro-1,3-thiazol-2-yl)-2,4-dihydroxyphenyl]-4,8-dioxaundecane (BDU)” for “chelators”, “Nicholson, Free” for “Nicholson (Free”, “20:” for “20,”, “(1994).” for “(1994)).”
The measurement examines the disappearance of ascorbate. It is known that DFO, a hydroxamate chelator that forms a 1:1 complex with Fe(III) at a formation constant of approximately 10^31 M^−1, prevents ascorbate-mediated reduction of Fe(III); it serves as a positive control in the present study. Both NTA and L1 promote ascorbate-mediated reduction of Fe(III) and serve as negative controls.

iron [3] = test: Iron clearance in the non iron-overloaded, bile duct-cannulated rodent model; type: in vivo, Sprague-Dawley rats
Method: Briefly, male Sprague-Dawley rats averaging 450 g were housed in Nalgene plastic metabolic cages during the experimental period and given free access to water. The animals were anesthetized using sodium pentobarbital (55 mg/kg) administered intraperitoneally. The bile duct was cannulated using 22-gauge polyethylene tubing. The cannula was inserted into the duct about 1 cm from the duodenum and tied snugly in place. After threading through the shoulder, the cannula was passed from the rat to the swivel inside a metal torque-transmitting tether, which was attached to a rodent jacket around the animal's chest. The cannula was directed from the rat to a Gilson microfraction collector (Middleton, Wis.) by a fluid swivel mounted above the metabolic cage. Bile samples were collected at 3 hour intervals for 24 hours. The urine sample was taken at 24 hours and handling was as previously described. (Bergeron, R. J., et al., J. Med. Chem. 34:2072-2078 (1991).
(§2) The iron chelators were solubilized in 40% Cremophor RH-40/water (v/v) and given orally and subcutaneously to the rats at the doses shown in Table 4. In the primates, DFO was dissolved in sterile H2O at a concentration of 50 or 100 mg/mL and given orally or subcutaneously at a volume of 1 ml/kg. The desferrithiocin analogues were solubilized in 40% Cremophor RH-40/water (v/v) and given orally to the monkeys at the doses shown in Table 4. However, the desferrithiocin analogues were administered subcutaneously as either a suspension in distilled H2O or as their sodium salts in solution as indicated in Table 4.
(§3) Iron clearance studies were carried out both in the non iron-overloaded, bile duct-cannulated rodent model and in the iron-overloaded Cebus apella monkey, and the results are reported as iron clearing efficiency (Table 4). This number is generated by dividing the net iron clearance [total iron excretion (bile or stool plus urine) minus background] by the theoretical iron clearance and multiplying by 100. The theoretical iron clearance is based on a 2:1 metal complex stoichiometry for 4′-(HO)-DADMDFT, a 1:1 stoichiometry for DFO, and a 1:1 stoichiometry for BDU, as shown in the Job's plot (FIG. 5). Data are presented as the mean±the standard error of the mean. The drugs were administered both orally (po) and subcutaneously (sc) to the rodents and primates; the positive control was DFO.

iron [4] = test: Iron clearance in the iron-overloaded Cebus apella monkey; type: in vivo; conditions: as sodium salt
Method: The monkeys were iron overloaded with intravenous iron dextran to provide about 500 mg iron per kg body weight. The serum transferrin iron saturation rose to between 70 and 80%. At least twenty half-lives, sixty days, elapsed before any of the animals were used in experiments evaluating iron-chelating agents.
Fecal and urine samples were collected at 24 hour intervals and processed. Briefly, the collections began 4 days prior to the administration of the test drug and continued for an additional 5 days after the drug was given. Iron concentrations were determined by flame atomic absorption spectroscopy.
as §2, §3

[5] = Table 1, A734, six-minute reaction, pH 7.4, 1.25 to 15 μM

Q: With `C[C@]1(C(=O)O)CSC(c2ccccc2O)=N1` [DADFT] as the compound, how does the “Slope × 10^3 OD units/μM (ABTS radical cation quenching)” value (from here on “Slope × 10^3 OD units/μM”) [1, 5] read?
A: −25.1 × 10^3 OD units/μM

Q: Which “effect on ascorbate-mediated reduction of Fe(III) (in words)” value (“effect on ascorbate-mediated reduction” for short) [2] does the source give for `COCCOCCOCCN(O)C(C)=O` [decyl hydroxamate, N-hydroxy,N-(3,6,9-trioxadecyl)acetamide] here?
A: increased the rate of iron(III) reduction

Q: For `O=C(O)C1CSC(c2ccccc2O)=N1` (stereo not drawn) [DADMDFT, desazadesmethyldesferrithiocin], which “Slope × 10^3 OD units/μM” value [1, 5] is on record?
A: −28.1 × 10^3 OD units/μM

Q: What does the source list for `O=C(O)[C@H]1CSC(c2cc(CCCOCCCOCCCc3cc(C4=N[C@@H](C(=O)O)CS4)c(O)cc3O)c(O)cc2O)=N1` [BDU, (S,S)-1,11-Bis[5-(4-carboxyl-4,5-dihydro-1,3-thiazol-2-yl)-2,4-dihydroxyphenyl]-4,8-dioxaundecane]?
A: effect on ascorbate-mediated reduction of Fe(III) (in words) [2]: significant protection; Slope × 10^3 OD units/μM (ABTS radical cation quenching) ([1]; Table 3, A734, 6-min reaction, values marked b are the inventors' unpublished results): −136 × 10^3 OD units/μM; % bile (of iron excreted), rodents (iron [3]; 150 μmol/kg po): 80%; % urine (of iron excreted), rodents (iron [3]; 150 μmol/kg po): 20%; efficiency in rodents (%) (iron [3]; 150 μmol/kg po): 0.9±0.4%; % bile (of iron excreted), rodents (iron [3]; 150 μmol/kg sc): 95%; % urine (of iron excreted), rodents (iron [3]; 150 μmol/kg sc): 5%; efficiency in rodents (%) (iron [3]; 150 μmol/kg sc): 6.5±2.0%; % stool (of iron excreted), monkeys (iron [4]; 75 μmol/kg sc): 98%; % urine (of iron excreted), monkeys (iron [4]; 75 μmol/kg sc): 2%; efficiency in monkeys (%) (iron [4]; 75 μmol/kg sc): 3.2±1.8% and 3.2 ± 1.8^g %; % urine (of iron excreted), monkeys (iron [4]; 150 μmol/kg sc, n = 3): 0%; efficiency in monkeys (%) (iron [4]; 150 μmol/kg sc, n = 3): 2.1±1.4% and 2.1 ± 1.4^g,h %

Q: For `O=C(O)CN(CC(=O)O)CC(=O)O` [NTA, nitrilotriacetic acid], which “effect on ascorbate-mediated reduction” value [2] is on record?
A: profoundly stimulatory effect; also recorded: promoted ascorbate-mediated reduction of Fe(III)

Q: What about the “effect on ascorbate-mediated reduction” value ([2]; listed as nitrilotriacetic acid) of the same compound?
A: increased the rate of iron(III) reduction

Q: With `Nc1ccc(O)c(C(=O)O)c1` [Compound 5-ASA, 5-aminosalicylic acid] as the compound, how does the “effect on ascorbate-mediated reduction” value [2] read?
A: promoted ascorbate-mediated reduction of Fe(III)

Q: What about the “effect on ascorbate-mediated reduction” value ([2]; listed as 5-aminosalicylic acid) of the same compound?
A: increased the rate of iron(III) reduction

Q: What about the “Slope × 10^3 OD units/μM” value [1, 5] of the same compound?
A: −34.4 × 10^3 OD units/μM
